Reference: US9987272B2, “Compound useful for the treatement of degenerative and inflammatory diseases” (GALAPAGOS NV, priority 2011, dated 2018)
Values joined by “and” are separate entries in the source; they are usually repeats but may differ in a detail not shown here. Equal entries are not always repeated.

What was measured:
[1] = target: T1, Recombinant human JAK1 (catalytic domain, amino acids 866-1154) (Homo sapiens, UniProt P23458); experiment: JAK1 Ulight-JAK1 peptide assay; assay type: biochemical; conditions: Ulight-JAK1(tyr1023) peptide, 7 μM ATP; individual determinations; read-out: IC50 against JAK1
T1 construct: catalytic domain, amino acids 866-1154; purchased Invitrogen PV4774
T1 sequence (P23458 866-1154): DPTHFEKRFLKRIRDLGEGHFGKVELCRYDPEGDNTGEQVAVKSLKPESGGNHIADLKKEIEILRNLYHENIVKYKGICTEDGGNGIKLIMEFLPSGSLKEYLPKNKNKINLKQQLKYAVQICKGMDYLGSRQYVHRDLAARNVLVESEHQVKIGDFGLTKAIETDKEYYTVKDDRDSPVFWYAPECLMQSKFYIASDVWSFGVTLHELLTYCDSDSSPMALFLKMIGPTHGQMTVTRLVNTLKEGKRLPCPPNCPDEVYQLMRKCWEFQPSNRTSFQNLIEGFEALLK
Method: Recombinant human JAK1 (catalytic domain, amino acids 866-1154; catalog number PV4774) was purchased from Invitrogen. 1 ng of JAK1 was incubated with 20 nM Ulight-JAK1(tyr1023) peptide (Perkin Elmer catalog number TRF0121) in kinase reaction buffer (25 mM MOPS pH6.8, 0.01% Brij-35, 5 mM MgCl2, 2 mM DTT, 7 μM ATP) with or without 4 μL containing test compound or vehicle (DMSO, 1% final concentration), in a total volume of 20 μL, in a white 384 Opti plate (Perkin Elmer, catalog number 6007290). […] Readout is performed using the Envision with excitation at 320 nm and measuring emission at 615 nm (Perkin Elmer). Kinase activity was calculated by subtracting relative fluorescence units (RFU) obtained in the presence of a positive control inhibitor (10 μM staurosporine) from RFU obtained in the presence of vehicle. The ability of a test compound to inhibit this activity was determined as: Percentage inhibition=((RFU determined for sample with test compound present−RFU determined for sample with positive control inhibitor) divided by (RFU determined in the presence of vehicle−RFU determined for sample with positive control inhibitor))*100.
A dose dilution series was prepared for the compound enabling the testing of dose-response effects in the JAK1 assay and the calculation of the IC50 for the compound. […] The data are expressed as the average IC50 from the assays±standard error of the mean.

[2] = target: T2, Recombinant human JAK3 catalytic domain (Homo sapiens, UniProt P52333); experiment: JAK3 inhibition assay; assay type: biochemical; conditions: polyGT substrate, 1 μM ATP, 33P-gamma-ATP; individual determinations; read-out: IC50 against JAK3
T2 construct: catalytic domain (amino acids 795-1124; catalog number 08-046); purchased Carna Biosciences 08-046
T2 sequence (P52333 795-1124): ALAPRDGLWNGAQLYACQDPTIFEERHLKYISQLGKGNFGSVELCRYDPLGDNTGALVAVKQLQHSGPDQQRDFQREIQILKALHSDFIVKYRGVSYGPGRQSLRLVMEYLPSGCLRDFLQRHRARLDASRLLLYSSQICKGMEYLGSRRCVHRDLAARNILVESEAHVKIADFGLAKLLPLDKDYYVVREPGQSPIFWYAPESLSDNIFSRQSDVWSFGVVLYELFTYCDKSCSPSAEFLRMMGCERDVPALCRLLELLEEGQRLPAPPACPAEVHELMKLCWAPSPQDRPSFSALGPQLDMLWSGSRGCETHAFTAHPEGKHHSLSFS
Method: Recombinant human JAK3 catalytic domain (amino acids 795-1124; catalog number 08-046) was purchased from Carna Biosciences. 0.5 ng JAK3 protein was incubated with 2.5 μg polyGT substrate (Sigma catalog number P0275) in kinase reaction buffer (25 mM Tris pH 7.5, 0.5 mM EGTA, 10 mM MgCl2, 2.5 mM DTT, 0.5 mM Na3VO4, 5 mM b-glycerolphosphate, 0.01% Triton X-100, 1 μM non-radioactive ATP, 0.25 μCi 33P-gamma-ATP (Perkin Elmer, catalog number NEG602K001MC) final concentrations) with or without 5 μL containing test compound or vehicle (DMSO, 1% final concentration), in a total volume of 25 μL, in a polypropylene 96-well plate (Greiner, V-bottom). After 45 min at 30° C., reactions were stopped by adding 25 μL/well of 150 mM phosphoric acid. […] 40 μL/well of Microscint-20 was added, the top of the plates was sealed and readout was performed using the Topcount (Perkin Elmer). Kinase activity was calculated by subtracting counts per min (cpm) obtained in the presence of a positive control inhibitor (10 μM staurosporine) from cpm obtained in the presence of vehicle. The ability of a test compound to inhibit this activity was determined as: Percentage inhibition=((cpm determined for sample with test compound present−cpm determined for sample with positive control inhibitor) divided by (cpm determined in the presence of vehicle−cpm determined for sample with positive control inhibitor))*100. […]

[3] = target: T3, Recombinant human TYK2 catalytic domain (Homo sapiens, UniProt P29597); experiment: TYK2 inhibition assay; assay type: biochemical; conditions: polyGT substrate, 0.1 μM ATP, 33P-gamma-ATP; individual determinations; read-out: IC50 against TYK2
T3 construct: catalytic domain (amino acids 871-1187; catalog number 08-147); purchased Carna Biosciences 08-147
T3 sequence (P29597 871-1187): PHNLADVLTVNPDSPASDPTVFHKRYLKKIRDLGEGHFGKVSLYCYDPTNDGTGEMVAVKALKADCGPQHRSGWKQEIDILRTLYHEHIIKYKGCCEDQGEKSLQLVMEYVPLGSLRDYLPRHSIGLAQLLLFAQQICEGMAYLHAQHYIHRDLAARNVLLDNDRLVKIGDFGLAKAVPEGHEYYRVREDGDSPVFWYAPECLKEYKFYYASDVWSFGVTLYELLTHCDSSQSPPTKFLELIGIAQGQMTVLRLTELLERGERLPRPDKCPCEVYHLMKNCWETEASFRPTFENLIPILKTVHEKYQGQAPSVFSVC
Method: Recombinant human TYK2 catalytic domain (amino acids 871-1187; catalog number 08-147) was purchased from Carna biosciences. 4 ng of TYK2 was incubated with 12.5 μg polyGT substrate (Sigma catalog number P0275) in kinase reaction buffer (25 mM Hepes pH 7.2, 50 mM NaCl, 0.5 mM EDTA, 1 mM DTT, 5 mM MnCl2, 10 mM MgCl2, 0.1% Brij-35, 0.1 μM non-radioactive ATP, 0.125 μCi ^33P-gamma-ATP (Perkin Elmer, catalog number NEG602K001MC) final concentrations) with or without 5 μL containing test compound or vehicle (DMSO, 1% final concentration), in a total volume of 25 μL, in a polypropylene 96-well plate (Greiner, V-bottom). After 90 min at 30° C., reactions were stopped by adding 25 μL/well of 150 mM phosphoric acid. […] 40 μL/well of Microscint-20 was added, the top of the plates was sealed and readout was performed using the Topcount (Perkin Elmer). Kinase activity was calculated by subtracting counts per min (cpm) obtained in the presence of a positive control inhibitor (10 μM staurosporine) from cpm obtained in the presence of vehicle. The ability of a test compound to inhibit this activity was determined as: Percentage inhibition=((cpm determined for sample with test compound present−cpm determined for sample with positive control inhibitor) divided by (cpm determined in the presence of vehicle−cpm determined for sample with positive control inhibitor))*100. […]

TYK2 = target: T4, TYK2 (Homo sapiens, UniProt P29597); experiment: TYK2 Ki determination assay; assay type: biochemical; conditions: Lineweaver-Burk plot, polyGT substrate, varying ATP
T4 construct: catalytic domain (amino acids 871-1187; catalog number 08-147); purchased Carna Biosciences 08-147
T4 sequence (P29597 871-1187): T3 sequence (P29597 871-1187)
Method: For the determination of Ki, different amounts of compound are mixed with the enzyme and the enzymatic reaction is followed as a function of ATP concentration. The Ki is determined by means of double reciprocal plotting of Km vs compound concentration (Lineweaver-Burk plot). TYK2 (Carna Biosciences, 08-147) was used at a final concentration of 160 ng/ml. The substrate was Poly(Glu,Tyr)sodium salt (4:1), MW 20 000-50 000 (Sigma, P0275) The reaction was performed in 25 mM Hepes pH 7.2, 50 mM NaCl, 0.5 mM EDTA, 1 mM DTT, 5 mM MnCl2, 10 mM MgCl2, 0.1% Brij-35 with varying concentrations of ATP and compound and stopped by addition of 150 mM phosphoric acid. Measurement of incorporated phosphate into the substrate polyGT was done by loading the samples on a filter plate (using a harvester, Perkin Elmer) and subsequent washing. Incorporated ^33P in polyGT is measured in a Topcount scintillation counter after addition of scintillation liquid to the filter plates (Perkin Elmer).

[4] = target: T5, Recombinant human JAK2 (catalytic domain) (Homo sapiens, UniProt O60674); experiment: JAK2 Ulight-JAK1 peptide assay; assay type: biochemical; conditions: Ulight-JAK1(tyr1023) peptide, 7.5 μM ATP; individual determinations; read-out: IC50 against JAK2
T5 construct: Recombinant human JAK2 catalytic domain (amino acids 808-1132; catalog number PV4210); purchased Invitrogen PV4210
T5 sequence (O60674 808-1132): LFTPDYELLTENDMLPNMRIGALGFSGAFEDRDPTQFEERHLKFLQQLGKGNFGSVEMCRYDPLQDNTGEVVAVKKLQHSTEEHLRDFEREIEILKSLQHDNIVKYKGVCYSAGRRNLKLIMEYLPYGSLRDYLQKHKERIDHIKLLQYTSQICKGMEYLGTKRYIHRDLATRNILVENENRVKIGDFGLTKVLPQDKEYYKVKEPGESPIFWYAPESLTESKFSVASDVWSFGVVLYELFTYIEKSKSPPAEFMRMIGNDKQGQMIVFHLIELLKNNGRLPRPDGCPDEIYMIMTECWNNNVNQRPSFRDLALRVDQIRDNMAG
Method: Recombinant human JAK2 (catalytic domain, amino acids 866-1154; catalog number PV4210) was purchased from Invitrogen. 0.0125 mU of JAK2 was incubated with 25 nM Ulight-JAK1(tyr1023) peptide (Perkin Elmer catalog number TRF0121) in kinase reaction buffer (25 mM HEPES pH7.0, 0.01% Triton X-100, 7.5 mM MgCl2, 2 mM DTT, 7.5 μM ATP) with or without 4 μL containing test compound or vehicle (DMSO, 1% final concentration), in a total volume of 20 μL, in a white 384 Opti plate (Perkin Elmer, catalog number 6007290). […] Readout is performed using the Envision with excitation at 320 nm and measuring emission at 615 nm (Perkin Elmer). Kinase activity was calculated by subtracting relative fluorescence units (RFU) obtained in the presence of a positive control inhibitor (10 μM staurosporine) from RFU obtained in the presence of vehicle. The ability of a test compound to inhibit this activity was determined as: Percentage inhibition=((RFU determined for sample with test compound present−RFU determined for sample with positive control inhibitor) divided by (RFU determined in the presence of vehicle−RFU determined for sample with positive control inhibitor))*100. […]

JAK-STAT = JAK-STAT signalling assay; assay type: cell-based; conditions: HeLa cells, pSTAT1(2)-luciferase reporter, human OSM 33 ng/mL; read-out: IC50 against JAK-STAT
Method: HeLa cells were maintained in Dulbecco's Modified Eagle's Medium (DMEM) containing 10% heat inactivated fetal calf serum, 100 U/mL penicillin and 100 μg/mL streptomycin. HeLa cells were used at 70% confluence for transfection. 20,000 cells in 87 μL cell culture medium were transiently transfected with 40 ng pSTAT1(2)-luciferase reporter (Panomics), 8 ng of LacZ reporter as internal control reporter and 52 ng of pBSK using 0.32 μL Jet-PEI (Polyplus) as transfection reagent per well in 96-well plate format. After overnight incubation at 37° C., 5% CO2, transfection medium was removed. 81 μL of DMEM+1.5% heat inactivated fetal calf serum was added. 9 μL compound at 10× concentration was added for 60 min and then 10 μL of human OSM (Peprotech) at 33 ng/mL final concentration. […]
40 μL of cell lysate was used to read β-galactosidase activity by adding 180 μL β-Gal solution (30 μl ONPG 4 mg/mL+150 μL β-Galactosidase buffer (0.06 M Na2HPO4, 0.04 M NaH2PO4, 1 mM MgCl2)) for 20 min. The reaction was stopped by addition of 50 μL Na2CO3 1 M. Absorbance was read at 405 nm.
Luciferase activity was measured using 40 μL cell lysate plus 40 μL of Steadylite® as described by the manufacturer (Perkin Elmer), on the Envision (Perkin Elmer). […]

IC50 [1]: 8.18 nM and 11.5 nM and 7.71 nM and 35.2 nM and 7.85 nM
IC50 [2]: 271 nM and 299 nM and 213 nM and 428 nM
IC50 [3]: 167 nM and 135 nM and 119 nM and 157 nM
Ki (TYK2): 110 nM
IC50 [4]: 17.3 nM and 11.3 nM and 9.57 nM and 26 nM and 18.2 nM
IC50 (JAK-STAT): 970 nM
Compound: CC(=O)Nc1cc2c(-c3ccc(CN4CCN(S(C)(=O)=O)CC4)c(F)c3)cccn2n1 [Compound 1]
